Measurements from PubChem BioAssay AID248 (DTP/NCI, 2004).
“And” between values parts separate entries of the source, which are not always exact repeats. Equal entries are not always repeated. Toxic doses and inconclusive results are not listed. Cut-off read from the data, not from the text of the source: active = T/C of 150% or more; inactive = T/C below 125%.

System: L1210 leukemia ip in BDF1 mice, survival T/C
Assay: NCI In Vivo Anticancer Drug Screen. Data for tumor model L1210 Leukemia (intraperitoneal) in B6D2F1 (BDF1) mice
Conditions: endpoint: mean survival time, higher = longer survival
How it was run: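 Transplanted-tumor mice were given test agent; controls received vehicle only. Survival readings from the two groups were divided (treated over control).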

[1] = dose: 100.0 mg/kg/injection, schedule: Q04DX003 (ip), vehicle: Klucel (hydroxypropylcellulose) (HPC)
[2] = dose: 200.0 mg/kg/injection, schedule: Q04DX003 (ip), vehicle: Klucel (hydroxypropylcellulose) (HPC)
[3] = dose: 400.0 mg/kg/injection, schedule: Q04DX003 (ip), vehicle: Klucel (hydroxypropylcellulose) (HPC)
[4] = dose: 2.5 mg/kg/injection, schedule: Q01DX009 (ip), vehicle: saline
[5] = dose: 5.0 mg/kg/injection, schedule: Q01DX009 (ip), vehicle: saline
[6] = dose: 100.0 mg/kg/injection, schedule: Q04DX002 (ip), vehicle: Klucel (hydroxypropylcellulose) (HPC)
[7] = dose: 200.0 mg/kg/injection, schedule: Q04DX002 (ip), vehicle: Klucel (hydroxypropylcellulose) (HPC)
[8] = dose: 400.0 mg/kg/injection, schedule: Q04DX002 (ip), vehicle: Klucel (hydroxypropylcellulose) (HPC)
[9] = dose: 100.0 mg/kg/injection, schedule: Q01DX009 (ip), vehicle: Klucel (hydroxypropylcellulose) (HPC)
[10] = dose: 200.0 mg/kg/injection, schedule: Q01DX009 (ip), vehicle: Klucel (hydroxypropylcellulose) (HPC)
[11] = dose: 400.0 mg/kg/injection, schedule: Q01DX009 (ip), vehicle: Klucel (hydroxypropylcellulose) (HPC)
[12] = dose: 100.0 mg/kg/injection, schedule: Q04DX003 (ip), vehicle: saline with Tween-80
[13] = dose: 200.0 mg/kg/injection, schedule: Q04DX003 (ip), vehicle: saline with Tween-80
[14] = dose: 400.0 mg/kg/injection, schedule: Q04DX003 (ip), vehicle: saline with Tween-80

Measured: T/C

CCOC(=O)c1cnc(SC)nc1NC(C)(C)C
inactive: [1] 101 % of control | [2] 100 % of control | [3] 94 % of control

COc1ccc2c(C)[n+]3ccc4cc(OC)c(OC)cc4c3cc2c1 (tested in a mixture with another compound)
inactive: [4] 120 % of control | [5] 121 % of control | dose: 6.25 mg/kg/injection, schedule: Q01DX009 (ip), vehicle: saline 117 % of control | dose: 12.5 mg/kg/injection, schedule: Q01DX009 (ip), vehicle: saline 121 % of control | dose: 15.0 mg/kg/injection, schedule: Q01DX009 (ip), vehicle: saline 110 % of control | dose: 20.0 mg/kg/injection, schedule: Q01DX009 (ip), vehicle: saline 123 % of control | dose: 25.0 mg/kg/injection, schedule: Q01DX009 (ip), vehicle: saline 123 % of control | dose: 40.0 mg/kg/injection, schedule: Q01DX009 (ip), vehicle: saline 124 % of control | dose: 50.0 mg/kg/injection, schedule: Q01DX009 (ip), vehicle: saline 115 % of control | dose: 80.0 mg/kg/injection, schedule: Q01DX009 (ip), vehicle: saline 105 % of control | dose: 100.0 mg/kg/injection, schedule: Q01DX009 (ip), vehicle: saline 115 % of control | dose: 108.0 mg/kg/injection, schedule: Q01DX009 (ip), vehicle: saline 100 % of control

O=C(O)c1cc(S(=O)(=O)O)cc([N+](=O)[O-])c1O
inactive: [6] 96 % of control | [7] 104 % of control | [8] 96 % of control

CN1COc2c(nc(-c3ccccc3)[nH]c2=O)C1
inactive: dose: 50.0 mg/kg/injection, schedule: Q01DX001 (ip), vehicle: carboxymethylcellulose (CMC) 101 % of control | dose: 100.0 mg/kg/injection, schedule: Q01DX001 (ip), vehicle: carboxymethylcellulose (CMC) 98 % of control | dose: 200.0 mg/kg/injection, schedule: Q01DX001 (ip), vehicle: carboxymethylcellulose (CMC) 98 % of control | dose: 400.0 mg/kg/injection, schedule: Q01DX001 (ip), vehicle: carboxymethylcellulose (CMC) 95 % of control

Cc1ccc(CNC(=O)NC(C)(C)C)c(C)c1
inactive: [9] 97 % of control | [10] 104 % of control | [11] 92 % of control

CC(C)(C(=O)O)c1ccccc1C(=O)c1ccccc1
inactive: [1] 97 % of control | [2] 101 % of control | [3] 105 % of control

COc1ccc(/C=N/NC(=O)c2ccc(O)cc2)cc1
inactive: [9] 100 % of control | [10] 98 % of control | [11] 94 % of control

CCOC(=O)Oc1ccc(OC)cc1
inactive: [9] 111 % of control | dose: 100.0 mg/kg/injection, schedule: Q04DX003 (ip), vehicle: saline 98 % of control | [10] 96 % of control | dose: 200.0 mg/kg/injection, schedule: Q04DX003 (ip), vehicle: saline 112 % of control | [11] 96 % of control | dose: 400.0 mg/kg/injection, schedule: Q04DX003 (ip), vehicle: saline 124 % of control

O=C(NCCCNC(=O)Nc1ccc(C2=NCCN2)cc1)Nc1ccc(C2=NCCN2)cc1
active: dose: 12.0 mg/kg/injection, schedule: Q01DX Z (ip), vehicle: carboxymethylcellulose (CMC) 225 % of control | dose: 16.0 mg/kg/injection, schedule: Q01DX Z (ip), vehicle: carboxymethylcellulose (CMC) 223 % of control | dose: 16.0 mg/kg/injection, schedule: Q01DX Z (ip), vehicle: water 210 % of control | dose: 24.0 mg/kg/injection, schedule: Q01DX Z (ip), vehicle: carboxymethylcellulose (CMC) 223 % of control | dose: 31.0 mg/kg/injection, schedule: Q01DX Z (ip), vehicle: carboxymethylcellulose (CMC) 177 % of control
inactive: dose: 0.5 mg/kg/injection, schedule: Q01DX Z (ip), vehicle: carboxymethylcellulose (CMC) 105 % of control | dose: 1.0 mg/kg/injection, schedule: Q01DX Z (ip), vehicle: carboxymethylcellulose (CMC) 105 % of control | dose: 8.0 mg/kg/injection, schedule: Q01DX Z (ip), vehicle: water 122 % of control

Cc1cc(C(C)(CC(C)C)c2ccc(O)c(C)c2)ccc1O
inactive: dose: 25.0 mg/kg/injection, schedule: Q01DX009 (ip), vehicle: gum acacia 96 % of control | dose: 50.0 mg/kg/injection, schedule: Q01DX009 (ip), vehicle: gum acacia 98 % of control | dose: 100.0 mg/kg/injection, schedule: Q01DX009 (ip), vehicle: gum acacia 93 % of control and 89 % of control | dose: 100.0 mg/kg/injection, schedule: Q04DX003 (ip), vehicle: gum acacia 97 % of control | dose: 200.0 mg/kg/injection, schedule: Q04DX003 (ip), vehicle: gum acacia 93 % of control | dose: 400.0 mg/kg/injection, schedule: Q04DX003 (ip), vehicle: gum acacia 90 % of control

c1ccc2nc3ccccc3c-2cc1
inactive: dose: 100.0 mg/kg/injection, schedule: Q04DX003 (ip), vehicle: acetone 95 % of control | dose: 200.0 mg/kg/injection, schedule: Q04DX003 (ip), vehicle: acetone 98 % of control | dose: 400.0 mg/kg/injection, schedule: Q04DX003 (ip), vehicle: acetone 95 % of control

C(=N/Sc1ccccc1)/c1ccccc1
inactive: [6] 98 % of control | [7] 98 % of control | [8] 112 % of control

CN(C)CCC(CCC(=O)O)(C(=O)O)c1ccccc1 (centres undefined)
inactive: dose: 75.0 mg/kg/injection, schedule: Q01DX001 (ip), vehicle: saline 98 % of control | dose: 150.0 mg/kg/injection, schedule: Q01DX001 (ip), vehicle: saline 96 % of control | dose: 300.0 mg/kg/injection, schedule: Q01DX001 (ip), vehicle: saline 90 % of control

Nc1ccc(O)c2ccccc12
inactive: dose: 6.25 mg/kg/injection, schedule: Q04DX003 (ip), vehicle: other 97 % of control

CCCCCC1(C)OCC(C)(C)N1O (centres undefined)
inactive: dose: 100.0 mg/kg/injection, schedule: Q01DX001 (ip), vehicle: saline 104 % of control | dose: 200.0 mg/kg/injection, schedule: Q01DX001 (ip), vehicle: saline 102 % of control | dose: 400.0 mg/kg/injection, schedule: Q01DX001 (ip), vehicle: saline 111 % of control

CCOC(=O)Cn1c(=O)n(CC(=O)OCC)c2ccccc21
inactive: [6] 104 % of control | [7] 100 % of control | [8] 110 % of control

CCCCCCCCCCCCSC(SCCCCCCCCCCCC)SCCCCCCCCCCCC
inactive: dose: 100.0 mg/kg/injection, schedule: Q01DX001 (ip), vehicle: other 95 % of control | dose: 200.0 mg/kg/injection, schedule: Q01DX001 (ip), vehicle: other 106 % of control | dose: 400.0 mg/kg/injection, schedule: Q01DX001 (ip), vehicle: other 95 % of control

O=C1OCc2cccc3cccc1c23
inactive: [12] 115 % of control | [13] 104 % of control

Cn1c(CC(O)(C(F)(F)F)C(F)(F)F)ccc1CC(O)(C(F)(F)F)C(F)(F)F
inactive: dose: 100.0 mg/kg/injection, schedule: Q01DX001 (ip), vehicle: gum acacia 107 % of control | dose: 200.0 mg/kg/injection, schedule: Q01DX001 (ip), vehicle: gum acacia 103 % of control | dose: 400.0 mg/kg/injection, schedule: Q01DX001 (ip), vehicle: gum acacia 98 % of control

O=C(CC(=O)CC(O)(C(F)(F)F)C(F)(F)F)CC(O)(C(F)(F)F)C(F)(F)F
inactive: [4] 97 % of control | [5] 95 % of control

CCOC(=O)c1c(N)sc2c1CCCC2
inactive: dose: 100.0 mg/kg/injection, schedule: Q01DX009 (ip), vehicle: saline sonified 102 % of control | [12] 95 % of control | dose: 200.0 mg/kg/injection, schedule: Q01DX009 (ip), vehicle: saline sonified 89 % of control | [13] 103 % of control | dose: 400.0 mg/kg/injection, schedule: Q01DX009 (ip), vehicle: saline sonified 105 % of control | [14] 97 % of control

COc1ccc(Cl)cc1NC(=O)Oc1ccc(-c2ccccc2)cc1Cl
inactive: dose: 100.0 mg/kg/injection, schedule: Q01DX009 (ip), vehicle: saline with Tween-80 99 % of control | dose: 200.0 mg/kg/injection, schedule: Q01DX009 (ip), vehicle: saline with Tween-80 92 % of control | dose: 400.0 mg/kg/injection, schedule: Q01DX009 (ip), vehicle: saline with Tween-80 91 % of control

Nc1nc(N)c(-c2ccc(Cl)cc2)c(CNc2ccc([N+](=O)[O-])cc2)n1
inactive: [12] 109 % of control | [13] 95 % of control | [14] 95 % of control
